# Measured values: patent US12019067B2, “Interferometry based systems to detect small mass changes of an object in a solution” (NantBio, Inc., priority 2020, dated 2024)
# What was measured:
# Format in all cases: cell-based, human
# MM.1S cells = test: LCI growth of MM.1S cells treated with bortezomib or dexamethasone
# Excerpt: As an alternative, MM.1 cells may be used as model cell line for assay development, wherein MM.1S refers to a strain that is sensitive to a drug such as dexamethasone and MM.1R refers to a strain that is resistant to a drug such as dexamethasone. For these types of experiments, a 12 well plate may be seeded at about 1.5××10^5 cells per plate. The desired concentration of therapeutic(s) may be added to each of the six wells. Control wells may also be established using the same dilutions with DMSO as the test well containing drug. LCI imaging may begin immediately after drug addition, with images being taken every 10-15 minutes.
# About 2.5××10^5 cells per well were placed on a poly-D-lysine 12 well plate, and incubated for one hour. About 200 nM dexamethasone, 10 nM bortezomib, or DMSO (in duplicate wells) were added to each well, and images were collected every 15 mins for up to 15 hours.
# H929 cells = test: Live cell interferometry (LCI) growth of H929 cells with or without bortezomib; settings: for growth trajectory compared to the control: 96 well plate
# Experimental: A typical assay may include, for a single plate, forming groups of seven wells. A range of concentrations may be used, with each concentration (e.g., a DMSO control, varying therapeutic concentrations of 0.039 nM, 0.156 nM, 0.625 nM, 2.5 nM, 10 nM, and 40 nM) applied to a group of wells. In some embodiments, cells are plated, therapeutic(s) are added, and images are collected every 10-15 minutes for the designated period of time.
# For development of screening techniques, H929 cells may be used. H929 cells, which may be grown in serum free conditions, have the morphologic, ultrastructural, biochemical, immunologic, and cytochemical features of plasma cells (see, Gazdar et al., Blood (1986) 67(6): 1542-9). H929 cells, derived from a human patient with multiple myeloma, are commonly used for multiple myeloma testing and are sensitive to a variety of chemotherapeutic drugs.
# In this experiment, about 1681 control cells and about 1272 bortezomib treated cells were screened.
# A small but statistically significant difference in growth rate was detected at about 4.5 hrs. […] As shown in this graph, the growth trajectories of the control and bortezomib treated cells begin to diverge between 4-5 hours. […] Here, a vertical line indicates a statistically significant point of divergence using LCI techniques between 4-5 hours.
# In this experiment, about 1889 control cells and about 1248 bortezomib treated cells were screened. Imaging was initiated after drug addition, every 12 min for 7 hrs. In this study, the normalized growth rate [1/h] of DMSO control cells was 0.0152, while the normalized growth rate [1/h] of 10 nM bortezomib treated cells was 0.0139, for a difference of −8.6% between these two growth rates. As shown by the graph, after about 5 hours, the normalized growth rate of control and 10 nM bortezomib treated cells diverged. Accordingly, under these conditions, efficacy of a drug was determined in about 5 hours.
# For this graph, the same plate (as used in FIG. 21C) was imaged (for a total of 24 hours) after drug addition. An image was taken every 12 minutes for about 15 hours. About 1867 control cells and about 1426 bortezomib treated cells were screened.
# FIGS. 22A-22D show another study using bortezomib. […] A clear response to the therapeutic was observed, with the drug EC50 expected to be between 2.5-10 nM.
# MM.1R and MM.1S cells = test: Multiple myeloma combinatorial screening of therapeutics by LCI, 96 well plate; settings: for overall result: response / overall result: titration effect: 3 concentrations per drug, quadruplicate, 96 well plate; for ranking among screened drugs: bortezomib 20 nM and carfilzomib at 50 nM
# Experimental: In this example, 6 therapeutics at 3 different concentrations, were added in quadruplicate to a 96 well plate. Thus, there were 19 different conditions: bortezomib (20, 5, 1.25 nM); carlifomib (50, 10, 2 nM); dexamethasone (300, 100, 33.3 nM); lenalidomide (50, 10, 2 nM); panobinostat (50, 10, 2 nM); pomalidomide (50, 10, 2 nM); and DMSO (300 nM) as a negative control. In clinical practice, the actual drugs/combinations may be provided by the clinician.
# In this study, a large number of cells (12,000 total cells) were screened to identify optimal drugs and concentrations. This assay, while performed on MM.1R and MM.1S cells may be performed on any suitable cell type (e.g., patient derived cancer cells from multiple myeloma, breast cancer, lung cancer, etc.). For multiple myeloma cells, a protocol for CD138+ cell enrichment from patient bone marrow is provided in the art.
# FIGS. 25B, 25C, and 25D show the results of this assay, in graphical, dot box, and table format respectively, in which multiple “best treatments” were identified using this system.
structure (smiles),measurement,setting,value
CC(C)C[C@H](NC(=O)[C@H](Cc1ccccc1)NC(=O)c1cnccn1)B(O)O [bortezomib],EC50,"MM.1S cells; Homo sapiens, MM1.S cells, bortezomib titration",2.5 to 10 nM
same,sensitivity of cells to drug,"MM.1S cells; MM.1S, 10 nM bortezomib",sensitive
same,difference between growth rates of treated and DMSO control cells,H929 cells; 2 nM bortezomib,−6.55%
same,normalized growth rate,"H929 cells; 2 nM bortezomib, imaged about 15 hours",0.0172 h⁻¹
same,difference between growth rates of treated and DMSO control cells,"H929 cells; 10 nM bortezomib, first 7 hrs",−8.6%
same,normalized growth rate,"H929 cells; 10 nM bortezomib, imaged every 12 min for 7 hrs after drug addition",0.0139 h⁻¹
same,difference between growth rates of treated and DMSO control cells,"H929 cells; 10 nM bortezomib, later imaging about 15 hours (total 24 hours)",−119.6%
same,normalized growth rate,"H929 cells; 10 nM bortezomib, same plate imaged further about 15 hours (total of 24 hours after drug addition)",0.000443 h⁻¹
same,growth trajectory compared to the control,H929 cells; 2.5 nM,did not show a difference in growth trajectory
same,growth trajectory compared to the control,H929 cells; 10 nM,significant decline in growth
same,EC50,"H929 cells; Homo sapiens, NCI-H929, 96 well plate, 0-40 nM titration, expected value",2.5 to 10 nM
same,overall result: response,MM.1R and MM.1S cells,good/great response
same,overall result: titration effect,MM.1R and MM.1S cells,good titration effect
same,ranking among screened drugs,MM.1R and MM.1S cells,most effective drugs
CC(C)C[C@H](NC(=O)[C@H](CCc1ccccc1)NC(=O)CN1CCOCC1)C(=O)N[C@@H](Cc1ccccc1)C(=O)N[C@@H](CC(C)C)C(=O)[C@@]1(C)CO1 [carfilzomib],overall result: response,MM.1R and MM.1S cells,good/great response
same,overall result: titration effect,MM.1R and MM.1S cells,good titration effect
same,ranking among screened drugs,MM.1R and MM.1S cells,most effective drugs
C[C@@H]1C[C@H]2[C@@H]3CCC4=CC(=O)C=C[C@]4(C)[C@@]3(F)[C@@H](O)C[C@]2(C)[C@@]1(O)C(=O)CO [dexamethasone],reduction of MM.1S growth,"MM.1S cells; about 200 nM dexamethasone, imaged up to 15 hours",80.5%
Nc1cccc2c1CN(C1CCC(=O)NC1=O)C2=O (stereo not shown) [lenalidomide],overall result: response,MM.1R and MM.1S cells,no response
same,overall result: titration effect,MM.1R and MM.1S cells,no titration effect
Nc1cccc2c1C(=O)N(C1CCC(=O)NC1=O)C2=O (stereo not shown) [pomalidomide],overall result: response,MM.1R and MM.1S cells,some response
same,overall result: titration effect,MM.1R and MM.1S cells,good titration effect
